Experimental data as given in patent publication US11649228B2, “Zinc indicators for cellular imaging” (The Board of Regents of the University of Texas System, priority 2018, dated 2023).

Columns and labels:
[1] = Photochemical characterization of ZIGIRs in vitro (absorption, emission, quantum yield); format: physicochemical; settings: for ε (extinction coefficient): in M-1·cm-1 (unit assumed); for ϕfl × ε (fluorescence brightness): in M^-1 cm^-1 (unit assumed)
Experimental: UV-Vis spectra were recorded in a 1-cm path quartz cell on a Shimadzu 2401 PC spectrometer. Fluorescence excitation and emission spectra were recorded on a Fluorolog 3 spectrometer (Jobin-Yvon Horiba, Edison, N.J.). Zinc titration was performed by adding ZIGIRs (0.5 μM final concentration) to buffered Zn^2+ solutions containing 100 mM HEPES (pH 7.4). Nitrilotriacetic acid (NTA, 10 mM) and varying concentrations of ZnSO4 (0-9 mM) were mixed to reach free Zn^2+ concentrations between 0.1 nM and 40 nM (Li et al., 2011). Zn^2+ concentrations above 40 nM were controlled by iminodiacetate (IDA, 10 mM) and varying amounts of ZnSO4 (0-9.7 mM) in 100 mM HEPES (pH 7.4; Sasaki et al., 2011). To determine Zn^2+ binding dissociation constants (Kd(Zn^2+)), the Zn^2+ titration data were fitted to the least square exponential equation (Prism 7). Fluorescence quantum yields of ZIGIRs at pH 7.5 were determined using rhodamine 6G as the reference (Φfl=0.94 in MeOH; Magde et al., 2002). An example in shown FIGS. 11A0B. To examine the pH sensitivity of ZIGIRs, the fluorescence emission spectra was recorded from pH 3-9.4 in either nominally Zn^2+-free solutions containing 5 mM iminodiacetate or in 25 μM ZnSO4 solutions. The pH was controlled with 10 mM pH buffers including chloroacetic acid (pH 3.1), acetate (pH 4.1 and 5.0), 2-morpholinoethanesulfonic acid (MES, pH 6.14), HEPES (pH 7.5) and N-cyclohexyl-2-aminoethanesulfonic acid (CHES, pH 9.4).

[2] = test system: MIN-6 cells; assay: Correlation of ZIGIR-2 labeling with insulin immunofluorescence; format: cell-based, mouse; settings: wide-field microscopy
Experimental: Confocal imaging of ZIGIR-2 labeled MIN-6 cells appeared to be heterogenous, with numerous ZIGIR-2 positive puncta in some cells while few in others (FIG. 6B). The MIN-6 cell is a transformed β-cell line derived from a mouse insulinoma. […] To investigate how ZIGIR-2 staining correlates with the distribution of insulin granules, insulin immunofluorescence was performed on the same MIN-6 cells after ZIGIR-2 imaging. […] To further analyze MIN-6 cells that were differentially labeled with ZIGIR-2, and to address whether ZIGIR-2 staining correlated with other cellular organelles, MIN6 cells were separated into ZIGIR-2-High and ZIGIR-2-Low subsets based on ZIGIR-2 fluorescence intensity using fluorescence-activated cell sorting (FACS; FIG. 7E). The sorted cells were then compared by immunofluorescence using antibodies against insulin, NPC-1 (a marker protein of late endosome/lysosome; Patel et al., 1999 and Higgins et al., 1999), or GM130 (a Golgi marker protein; Nakamura et al., 1995). […]
To correlate the intensity of ZIGIR-2 labeling and cellular insulin content by imaging, MIN-6 cells were first labeled and seeded on a 35 mm MatTek glass dish with ZIGIR-2. Cells were then imaged on a wide field fluorescence microscope (Axiovert 200, Carl Zeiss) equipped with an EMCCD camera (iXon 897, Andor) through a 40× oil objective. […]

[3] = test system: T47D human breast cancer cells, H1299 lung carcinoma and HEK293 human embryonic kidney cells; assay: ZIGIR-2 imaging in cells not known to contain Zn^2+ rich secretory granules; format: cell-based
Experimental: To better understand the granular labeling specificity of ZIGIR-2, a number of mammalian cells were imaged that are not known to contain Zn^2+ rich secretory granules. These included T47D human breast cancer cells, H1299 lung carcinoma and HEK293 human embryonic kidney cells. […] However, after adding Zn/pyrithione, distinct ZIGIR-2 positive spots emerged in these cells (FIG. 8B). Subsequently, LysoTracker Green (LTG), an acidotropic fluorescent tracer based on BODIPY dye, was added to label acidic granules.
MIN-6 β cells were cultured as previously described (Li et al., 2011). HEK293 cells were cultured in DMEM medium supplemented with 10% FBS and 1% Penicillin/Streptomycin. T47D cells were cultured in RPMI-1640 medium supplemented with 10% FBS, 0.5% non-essential amino acids, 1 mM sodium pyruvate, 10 μg/mL geneticin and 0.01 mg/mL insulin. H1299 cells were cultured in RPMI-1640 medium supplemented with 10% FBS. All cells were maintained at 37° C. with 5% CO2. For cell imaging, cells were seeded in 35-mm petri dishes with glass bottoms (MatTek) and cultured for ˜24 hours to reach ˜50% confluence. Prior to labeling, cells were washed with a secretion assay buffer (SAB) containing 114 mM NaCl, 4.7 mM KCl, 1.2 mM KH2PO4, 2.5 mM CaCl2, 1.16 mM MgSO4, 3 mM glucose, and 20 mM Hepes (pH 7.4). […] ZIGIR colocalization with LysoTracker Green was analyzed and quantified with JACoP plugin of ImageJ.

In the case of `CN(C)c1ccc2c(-c3ccc(NCCN(CCc4ccccn4)Cc4ccccn4)cc3C(=O)[O-])c3ccc(=[N+](C)C)cc-3oc2c1` [ZIGIR-2], the absorption maximum [1] is reported as “around 555 nm”, the emission maximum [1] is reported as ~580 nm and the “λabd^max” value ([1]; Zn^2+ bound) is reported as 549 nm. For the same compound, the “λem^max” value ([1]; Zn^2+ bound) was 580 nm, the “ϕfl (fluorescence quantum yield)” value ([1]; Zn^2+ bound) was 0.26 and the “ε (extinction coefficient)” value ([1]; Zn^2+ bound) was 93,600. For the same compound, the “ϕfl × ε (fluorescence brightness)” value ([1]; Zn^2+ bound) was 24,336, the “λabd^max” value ([1]; Zn^2+ free) was 546 nm and the “λem^max” value ([1]; Zn^2+ free) was 572 nm. The “ϕfl (fluorescence quantum yield)” value ([1]; Zn^2+ free) was 0.008, the “ε (extinction coefficient)” value ([1]; Zn^2+ free) was 88,400 and the “ϕfl × ε (fluorescence brightness)” value ([1]; Zn^2+ free) was 707. For the same compound, the “Pearson's R value of cellular ZIGIR-2 intensity versus insulin immunofluorescence” value [2] was 0.79±0.05, the “overlap of ZIGIR-2 positive puncta with LysoTracker Green marked granules” value ([3]; after Zn/pyrithione) was “overlapped remarkably well” and the “fluorescence signal in basal SAB buffer” value ([3]; same dye loading and imaging conditions as MIN6 cells) was “barely any ZIGIR-2 fluorescence signal was detected”.
